{"source": "patent US20200368247A1", "about": "“CENICRIVIROC FOR THE TREATMENT OF FIBROSIS” (Tobira Therapeutics, Inc., priority 2014, published 2020)", "key": {"NASH mice": {"system": "NASH mice", "test": "STAM mouse model of NASH, anti-HCC effects, week 18", "details": "for Body weight / Maximum diameter of visible tumor nodules (mm) / mice with GS-positive nodules / mice with HCC lesions (HE staining): week 18; for mice that died (survival analysis): 6 to 18 weeks", "procedure": "Group 1-Vehicle: Eighteen NASH mice were orally administered vehicle at a volume of 10 mL/kg twice daily (9:00 and 19:00) from 6 weeks of age."}, "HIV-1": {"system": "HIV-1", "test": "Study 201 drug resistance testing", "type": "in vivo, human", "details": "Baseline, Day 7, Day 40; subjects with evaluable samples", "procedure": "In Study 201, drug resistance testing was performed at Baseline, Day 7, and Day 40 (or at the “Early Termination” visit, if applicable)."}, "[1]": {"test": "Chronic (3- and 9-month) monkey toxicity studies", "type": "in vivo", "details": "1000 mg/kg/day, 3- and 9-month monkey studies"}, "[2]": {"test": "Study 202 treatment-emergent laboratory abnormalities (DAIDS grade)", "type": "in vivo, human", "excerpt": "The 12th subject (Subject 42001) had 2 consecutive CPK elevations (Grade 3 followed by Grade 4) that returned to normal values while continuing treatment at a subsequent visit. None of the CPK elevations were associated with clinical symptoms; no subjects discontinued due to CPK elevations and there were no differences in AEs related to musculoskeletal disorders between the CVC and EFV arms.\nThe number of subjects with graded treatment-emergent laboratory abnormalities in selected liver parameters of interest is shown in Table 34. No Grade 4 ALT or AST elevations were observed. Except for one Grade 3 AST elevation, all ALT and AST elevations were Grade 1 or Grade 2. […] All abnormalities in bilirubin were Grade 1 or Grade 2. […]"}, "[3]": {"details": "CVC-high 100 mg/kg/day, listed as Cenicriviroc"}, "[4]": {"details": "CVC-low 20 mg/kg/day, listed as Cenicriviroc"}, "[5]": {"details": "All CVC (N = 115), EFV (N = 28)"}, "[6]": {"details": "All CVC (N = 115), EFV (N = 28), through Week 48"}, "[7]": {"details": "CVC 100 mg (N = 38), through Week 48"}}}
{"smiles": "CCCCOCCOc1ccc(-c2ccc3c(c2)/C=C(/C(=O)Nc2ccc([S@@+]([O-])Cc4cncn4CCC)cc2)CCCN3CC(C)C)cc1", "note": "[CVC, (S)-8-[4-(2-Butoxyethoxy)phenyl]-1-isobutyl-N-(4-{[(1-propyl-1H-imidazol-5-yl)methyl]sulfinyl}phenyl)-1,2,3,4-tetrahydro-1-benzazocine-5-carboxamide]", "values": [{"measurement": "Body weight", "setting": "NASH mice; CVC-high 100 mg/kg/day", "result": "20.8 ± 2.7", "unit": "g"}, {"measurement": "Maximum diameter of visible tumor nodules (mm)", "setting": "NASH mice; CVC-high 100 mg/kg/day", "result": "5.3±5.1", "unit": "mm"}, {"measurement": "Body weight", "setting": "NASH mice; [3]", "result": "20.8 ± 2.7", "unit": "g"}, {"measurement": "Maximum diameter of visible tumor nodules (mm)", "setting": "NASH mice; [3]", "result": "5.3 ± 5.1", "unit": "mm"}, {"measurement": "mice that died (survival analysis)", "setting": "NASH mice; CVC-high", "result": "Five out of twelve"}, {"measurement": "mice with GS-positive nodules", "setting": "NASH mice; CVC-high", "result": "seven out of seven"}, {"measurement": "mice with HCC lesions (HE staining)", "setting": "NASH mice; CVC-high", "result": "six out of seven"}, {"measurement": "Body weight", "setting": "NASH mice; CVC-low 20 mg/kg/day", "result": "22.9 ± 3.5", "unit": "g"}, {"measurement": "Maximum diameter of visible tumor nodules (mm)", "setting": "NASH mice; CVC-low 20 mg/kg/day", "result": "4.8±5.4", "unit": "mm"}, {"measurement": "Body weight", "setting": "NASH mice; [4]", "result": "22.9 ± 3.5", "unit": "g"}, {"measurement": "Maximum diameter of visible tumor nodules (mm)", "setting": "NASH mice; [4]", "result": "4.8 ± 5.4", "unit": "mm"}, {"measurement": "mice that died (survival analysis)", "setting": "NASH mice; CVC-low", "result": "Six out of twelve"}, {"measurement": "mice with GS-positive nodules", "setting": "NASH mice; CVC-low", "result": "five out of six"}, {"measurement": "mice with HCC lesions (HE staining)", "setting": "NASH mice; CVC-low", "result": "five out of six"}, {"measurement": "drug susceptibility of virus", "setting": "HIV-1", "result": "fully susceptible"}, {"measurement": "inflammation in clinical pathology parameters or tissue incl. liver", "setting": "[1]", "result": "No indication of inflammation"}, {"measurement": "Any graded (Grade 1-4) laboratory abnormality, %", "setting": "[2]; All CVC", "result": 92, "unit": "%"}, {"measurement": "Worst Grade 1 laboratory abnormality, %", "setting": "[2]; All CVC", "result": 32, "unit": "%"}, {"measurement": "Worst Grade 2 laboratory abnormality, %", "setting": "[2]; All CVC", "result": 43, "unit": "%"}, {"measurement": "Worst Grade 3 laboratory abnormality, %", "setting": "[2]; All CVC", "result": 11, "unit": "%"}, {"measurement": "Worst Grade 4 laboratory abnormality, %", "setting": "[2]; All CVC", "result": 5, "unit": "%"}, {"measurement": "ALT abnormality, worst Grade 1", "setting": "[2]; [5]", "result": "10 (9%) n (%)"}, {"measurement": "ALT abnormality, worst Grade 2", "setting": "[2]; [5]", "result": "5 (4%) n (%)"}, {"measurement": "ALT abnormality, worst Grade 3", "setting": "[2]; [5]", "result": "0 n (%)"}, {"measurement": "ALT abnormality, worst Grade 4", "setting": "[2]; [5]", "result": "0 n (%)"}, {"measurement": "AST abnormality, worst Grade 1", "setting": "[2]; [5]", "result": "14 (12%) n (%)"}, {"measurement": "AST abnormality, worst Grade 2", "setting": "[2]; [5]", "result": "6 (5%) n (%)"}, {"measurement": "AST abnormality, worst Grade 3", "setting": "[2]; [5]", "result": "1 (< %) n (%)"}, {"measurement": "AST abnormality, worst Grade 4", "setting": "[2]; [5]", "result": "0 n (%)"}, {"measurement": "Alanine aminotransferase (ALT) abnormality, any worst grade", "setting": "[2]; [5]", "result": "15 (13%) n (%)"}, {"measurement": "Aspartate aminotransferase (AST) abnormality, any worst grade", "setting": "[2]; [5]", "result": "21 (18%) n (%)"}, {"measurement": "Bilirubin abnormality, any worst grade", "setting": "[2]; [5]", "result": "7 (6%) n (%)"}, {"measurement": "Bilirubin abnormality, worst Grade 1", "setting": "[2]; [5]", "result": "3 (3%) n (%)"}, {"measurement": "Bilirubin abnormality, worst Grade 2", "setting": "[2]; [5]", "result": "4 (3%) n (%)"}, {"measurement": "Bilirubin abnormality, worst Grade 3", "setting": "[2]; [5]", "result": "0 n (%)"}, {"measurement": "Bilirubin abnormality, worst Grade 4", "setting": "[2]; [5]", "result": "0 n (%)"}, {"measurement": "AST increased, Grade 3", "setting": "[2]; [6]", "result": "1 (<1%) n (%)"}, {"measurement": "AST increased, Grade 4", "setting": "[2]; [6]", "result": "0 n (%)"}, {"measurement": "Any Grade 3 laboratory abnormality", "setting": "[2]; [6]", "result": "13 (11%) n (%)"}, {"measurement": "Any Grade 3 or Grade 4 laboratory abnormality", "setting": "[2]; [6]", "result": "19 (17%) n (%)"}, {"measurement": "Any Grade 4 laboratory abnormality", "setting": "[2]; [6]", "result": "6 (5%) n (%)"}, {"measurement": "Aspartate aminotransferase (AST) increased (Grade 3 or 4)", "setting": "[2]; [6]", "result": "1 (<1%) n (%)"}, {"measurement": "CPK increased, Grade 3", "setting": "[2]; [6]", "result": "8 (7%) n (%)"}, {"measurement": "CPK increased, Grade 4", "setting": "[2]; [6]", "result": "4 (3%) n (%)"}, {"measurement": "Creatine phosphokinase (CPK) increased (Grade 3 or 4)", "setting": "[2]; [6]", "result": "12 (10%) n (%)"}, {"measurement": "Fibrinogen decreased (Grade 3 or 4)", "setting": "[2]; [6]", "result": "2 (2%) n (%)"}, {"measurement": "Fibrinogen decreased, Grade 3", "setting": "[2]; [6]", "result": "2 (2%) n (%)"}, {"measurement": "Fibrinogen decreased, Grade 4", "setting": "[2]; [6]", "result": "0 n (%)"}, {"measurement": "Hemoglobin decreased (Grade 3 or 4)", "setting": "[2]; [6]", "result": "1 (<1%) n (%)"}, {"measurement": "Hemoglobin decreased, Grade 3", "setting": "[2]; [6]", "result": "0 n (%)"}, {"measurement": "Hemoglobin decreased, Grade 4", "setting": "[2]; [6]", "result": "1 (<1%) n (%)"}, {"measurement": "Neutrophils decreased (Grade 3 or 4)", "setting": "[2]; [6]", "result": "2 (2%) n (%)"}, {"measurement": "Neutrophils decreased, Grade 3", "setting": "[2]; [6]", "result": "2 (2%) n (%)"}, {"measurement": "Neutrophils decreased, Grade 4", "setting": "[2]; [6]", "result": "0 n (%)"}, {"measurement": "Phosphate decreased (Grade 3 or 4)", "setting": "[2]; [6]", "result": "4 (3%) n (%)"}, {"measurement": "Phosphate decreased, Grade 3", "setting": "[2]; [6]", "result": "4 (3%) n (%)"}, {"measurement": "Phosphate decreased, Grade 4", "setting": "[2]; [6]", "result": "0 n (%)"}, {"measurement": "Any graded (Grade 1-4) laboratory abnormality, %", "setting": "[2]; CVC 100 mg", "result": 88, "unit": "%"}, {"measurement": "Worst Grade 1 laboratory abnormality, %", "setting": "[2]; CVC 100 mg", "result": 36, "unit": "%"}, {"measurement": "Worst Grade 2 laboratory abnormality, %", "setting": "[2]; CVC 100 mg", "result": 40, "unit": "%"}, {"measurement": "Worst Grade 3 laboratory abnormality, %", "setting": "[2]; CVC 100 mg", "result": 7, "unit": "%"}, {"measurement": "Worst Grade 4 laboratory abnormality, %", "setting": "[2]; CVC 100 mg", "result": 5, "unit": "%"}, {"measurement": "AST increased, Grade 4", "setting": "[2]; [7]", "result": "0 n (%)"}, {"measurement": "Any Grade 3 or Grade 4 laboratory abnormality", "setting": "[2]; [7]", "result": "7 (12%) n (%)"}, {"measurement": "Any Grade 4 laboratory abnormality", "setting": "[2]; [7]", "result": "3 (5%) n (%)"}, {"measurement": "Aspartate aminotransferase (AST) increased (Grade 3 or 4)", "setting": "[2]; [7]", "result": "1 (2%) n (%)"}, {"measurement": "CPK increased, Grade 4", "setting": "[2]; [7]", "result": "1 (2%) n (%)"}, {"measurement": "Creatine phosphokinase (CPK) increased (Grade 3 or 4)", "setting": "[2]; [7]", "result": "3 (5%) n (%)"}, {"measurement": "Fibrinogen decreased (Grade 3 or 4)", "setting": "[2]; [7]", "result": "0 n (%)"}, {"measurement": "Fibrinogen decreased, Grade 3", "setting": "[2]; [7]", "result": "0 n (%)"}, {"measurement": "Fibrinogen decreased, Grade 4", "setting": "[2]; [7]", "result": "0 n (%)"}, {"measurement": "Hemoglobin decreased (Grade 3 or 4)", "setting": "[2]; [7]", "result": "1 (2%) n (%)"}, {"measurement": "Hemoglobin decreased, Grade 3", "setting": "[2]; [7]", "result": "0 n (%)"}]}
